The source of these data is the NIST ThermoML archive (doi:10.1021/acs.jced.8b00663).

Numbers after ± are expanded uncertainties.

Data set [1] in a line: Molar enthalpy of transition or fusion. Conditions: Crystal; DSC.
For data set [2] the following is noted: Crystal; DTA.

For the compound `CCOC(=O)C1=C[C@]2(CC)CCCN3CCc4c(n1c1ccccc41)[C@@H]32` [vinpocetine], the “Molar enthalpy of transition or fusion” value in data set [1] was 8.93 ± 0.406 kcal/mol. Also, the Normal melting temperature in data set [2] came to 149.00 ± 1.1 °C.
